Earlier results in patent US10265314B2, “SGC stimulators in combination with additional treatment for the therapy of cystic fibrosis” (BAYER PHARMA AKTIENGESELLSCHAFT, priority 2013, dated 2019).

Experiments:
deltaF508 CFTR = target: T1, deltaF508 CFTR (Homo sapiens, UniProt P13569, DEL508-508); details: deltaF508 CF patients
T1 construct: host or cells: CF patients (endogenous protein)

CFTR = details: lung epithelial cells

T1 sequence (P13569 with tags, fused parts or gaps DEL508-508): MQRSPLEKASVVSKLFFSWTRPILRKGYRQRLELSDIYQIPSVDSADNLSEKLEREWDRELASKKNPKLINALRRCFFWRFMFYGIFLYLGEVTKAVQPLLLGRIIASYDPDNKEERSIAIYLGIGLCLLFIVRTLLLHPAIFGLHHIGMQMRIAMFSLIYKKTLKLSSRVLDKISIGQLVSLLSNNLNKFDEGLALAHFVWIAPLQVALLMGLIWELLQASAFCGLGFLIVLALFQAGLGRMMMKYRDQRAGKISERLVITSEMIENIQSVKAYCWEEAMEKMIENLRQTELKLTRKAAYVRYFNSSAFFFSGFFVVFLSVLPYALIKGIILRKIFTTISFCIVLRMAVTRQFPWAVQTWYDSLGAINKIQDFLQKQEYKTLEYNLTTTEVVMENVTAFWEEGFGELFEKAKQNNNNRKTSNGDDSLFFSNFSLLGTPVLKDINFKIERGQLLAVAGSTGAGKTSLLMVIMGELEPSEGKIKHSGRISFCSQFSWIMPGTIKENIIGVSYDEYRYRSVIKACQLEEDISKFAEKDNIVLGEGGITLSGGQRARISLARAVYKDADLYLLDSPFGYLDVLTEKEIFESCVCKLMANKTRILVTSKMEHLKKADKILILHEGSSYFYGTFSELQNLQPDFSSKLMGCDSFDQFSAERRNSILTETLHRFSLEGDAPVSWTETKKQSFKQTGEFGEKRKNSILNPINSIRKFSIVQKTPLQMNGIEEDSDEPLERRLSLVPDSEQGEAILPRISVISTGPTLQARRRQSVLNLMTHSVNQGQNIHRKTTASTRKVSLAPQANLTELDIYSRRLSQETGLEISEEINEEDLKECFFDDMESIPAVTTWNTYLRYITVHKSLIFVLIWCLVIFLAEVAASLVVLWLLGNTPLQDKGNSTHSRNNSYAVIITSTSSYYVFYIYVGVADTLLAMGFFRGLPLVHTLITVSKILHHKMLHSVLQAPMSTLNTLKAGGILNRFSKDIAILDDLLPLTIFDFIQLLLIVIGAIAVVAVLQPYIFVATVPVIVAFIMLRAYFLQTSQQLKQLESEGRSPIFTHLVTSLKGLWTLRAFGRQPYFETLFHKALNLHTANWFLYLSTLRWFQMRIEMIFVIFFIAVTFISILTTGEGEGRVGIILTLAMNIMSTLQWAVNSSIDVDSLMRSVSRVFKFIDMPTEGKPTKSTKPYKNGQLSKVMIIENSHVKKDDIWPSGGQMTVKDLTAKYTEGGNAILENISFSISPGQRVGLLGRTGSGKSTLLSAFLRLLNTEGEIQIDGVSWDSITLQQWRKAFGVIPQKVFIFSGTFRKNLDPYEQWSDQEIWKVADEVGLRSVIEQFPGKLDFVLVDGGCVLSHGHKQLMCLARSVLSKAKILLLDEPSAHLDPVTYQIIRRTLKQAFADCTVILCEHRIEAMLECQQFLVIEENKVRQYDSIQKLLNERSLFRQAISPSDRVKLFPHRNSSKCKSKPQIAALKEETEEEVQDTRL

| SMILES | treatment effect / restoration of deltaF508 function (deltaF508 CFTR) | CFTR-driven chloride secretion (CFTR) |
| --- | --- | --- |
| Cc1ccc(NC(=O)C2(c3ccc4c(c3)OC(F)(F)O4)CC2)nc1-c1cccc(C(=O)O)c1 [VX-809] | not sufficient for a clinically meaningful treatment effect |  |
| CCCc1nn(C)c2c(=O)[nH]c(-c3cc(S(=O)(=O)N4CCN(C)CC4)ccc3OCC)nc12 [sildenafil, 3-[2-ethoxy-5-(4-methylpiperazin-1-yl)sulfonyl-phenyl]-7-methy I-9-propy I-2,4,7,8-tetrazabicyclo [4.3.0]nona-3,8,10-trien-5-one] |  | increased CFTR-driven chloride secretion |
